Source: article PMC12290280 (Plant and Cell Physiology, 2025)

How the values were obtained:
Assay in all cases: radiometric in vitro kinase assay, autoradiography
Type in all cases: biochemical
[1] = biological target: T1, His-OST1 (Arabidopsis thaliana, UniProt Q940H6); conditions: 200 µM ATP plus [γ-32P]ATP, 10 mM MgCl2, pH 7.5, room temperature
T1 construct: gene SRK2E; 6 x His tag, expressed in E. coli BL21 (DE3); plasmid from Takahashi et al. 2020
T1 sequence (Q940H6 1-362): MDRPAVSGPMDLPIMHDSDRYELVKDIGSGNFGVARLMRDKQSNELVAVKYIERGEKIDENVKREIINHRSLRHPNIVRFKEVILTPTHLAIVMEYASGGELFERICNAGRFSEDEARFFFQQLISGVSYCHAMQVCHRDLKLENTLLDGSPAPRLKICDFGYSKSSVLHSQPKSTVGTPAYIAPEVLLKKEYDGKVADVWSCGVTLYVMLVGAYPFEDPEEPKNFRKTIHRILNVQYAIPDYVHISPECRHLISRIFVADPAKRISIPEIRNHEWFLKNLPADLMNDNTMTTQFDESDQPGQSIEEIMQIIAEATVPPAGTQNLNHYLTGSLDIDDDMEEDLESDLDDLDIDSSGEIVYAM

[2] = biological target: T2, His-Raf12 (Arabidopsis thaliana, UniProt F4JMR7); conditions: autophosphorylation and histone phosphorylation; 200 µM ATP plus [γ-32P]ATP, labelled compound; 10 mM MgCl2; pH 7.5; room temperature
T2 construct: gene At4g23050; 6 x His tag, pET30a(+), expressed in E. coli BL21 (DE3); insert from cDNA of ABA-treated Col-0 leaf epidermis
T2 sequence (F4JMR7 1-735): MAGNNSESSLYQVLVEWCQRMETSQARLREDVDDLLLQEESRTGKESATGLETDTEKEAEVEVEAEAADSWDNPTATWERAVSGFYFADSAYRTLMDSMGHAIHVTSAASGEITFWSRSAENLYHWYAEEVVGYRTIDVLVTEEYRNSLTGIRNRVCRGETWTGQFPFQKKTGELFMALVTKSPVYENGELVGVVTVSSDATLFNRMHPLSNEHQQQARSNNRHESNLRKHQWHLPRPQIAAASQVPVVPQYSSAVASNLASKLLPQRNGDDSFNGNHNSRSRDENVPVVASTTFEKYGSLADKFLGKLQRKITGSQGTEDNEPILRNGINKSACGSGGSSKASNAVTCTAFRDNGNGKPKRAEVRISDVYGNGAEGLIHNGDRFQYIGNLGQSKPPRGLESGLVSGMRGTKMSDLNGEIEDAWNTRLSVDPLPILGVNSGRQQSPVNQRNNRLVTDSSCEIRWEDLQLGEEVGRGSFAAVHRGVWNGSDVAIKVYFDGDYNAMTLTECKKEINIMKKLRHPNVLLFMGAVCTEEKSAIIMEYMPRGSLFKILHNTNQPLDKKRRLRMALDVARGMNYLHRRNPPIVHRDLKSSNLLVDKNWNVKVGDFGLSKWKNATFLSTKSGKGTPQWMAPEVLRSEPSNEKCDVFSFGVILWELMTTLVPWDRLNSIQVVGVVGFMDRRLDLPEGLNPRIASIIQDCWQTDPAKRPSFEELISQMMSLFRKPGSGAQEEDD

[3] = biological target: T3, His-M3K∂6 (Arabidopsis thaliana, UniProt Q9C9U5); conditions: autophosphorylation and histone phosphorylation; 200 µM ATP plus [γ-32P]ATP, labelled compound; 10 mM MgCl2; pH 7.5; room temperature
T3 construct: gene SIS8; 6 x His tag, expressed in E. coli BL21 (DE3); plasmid from Takahashi et al. 2020
T3 sequence (Q9C9U5 1-1030): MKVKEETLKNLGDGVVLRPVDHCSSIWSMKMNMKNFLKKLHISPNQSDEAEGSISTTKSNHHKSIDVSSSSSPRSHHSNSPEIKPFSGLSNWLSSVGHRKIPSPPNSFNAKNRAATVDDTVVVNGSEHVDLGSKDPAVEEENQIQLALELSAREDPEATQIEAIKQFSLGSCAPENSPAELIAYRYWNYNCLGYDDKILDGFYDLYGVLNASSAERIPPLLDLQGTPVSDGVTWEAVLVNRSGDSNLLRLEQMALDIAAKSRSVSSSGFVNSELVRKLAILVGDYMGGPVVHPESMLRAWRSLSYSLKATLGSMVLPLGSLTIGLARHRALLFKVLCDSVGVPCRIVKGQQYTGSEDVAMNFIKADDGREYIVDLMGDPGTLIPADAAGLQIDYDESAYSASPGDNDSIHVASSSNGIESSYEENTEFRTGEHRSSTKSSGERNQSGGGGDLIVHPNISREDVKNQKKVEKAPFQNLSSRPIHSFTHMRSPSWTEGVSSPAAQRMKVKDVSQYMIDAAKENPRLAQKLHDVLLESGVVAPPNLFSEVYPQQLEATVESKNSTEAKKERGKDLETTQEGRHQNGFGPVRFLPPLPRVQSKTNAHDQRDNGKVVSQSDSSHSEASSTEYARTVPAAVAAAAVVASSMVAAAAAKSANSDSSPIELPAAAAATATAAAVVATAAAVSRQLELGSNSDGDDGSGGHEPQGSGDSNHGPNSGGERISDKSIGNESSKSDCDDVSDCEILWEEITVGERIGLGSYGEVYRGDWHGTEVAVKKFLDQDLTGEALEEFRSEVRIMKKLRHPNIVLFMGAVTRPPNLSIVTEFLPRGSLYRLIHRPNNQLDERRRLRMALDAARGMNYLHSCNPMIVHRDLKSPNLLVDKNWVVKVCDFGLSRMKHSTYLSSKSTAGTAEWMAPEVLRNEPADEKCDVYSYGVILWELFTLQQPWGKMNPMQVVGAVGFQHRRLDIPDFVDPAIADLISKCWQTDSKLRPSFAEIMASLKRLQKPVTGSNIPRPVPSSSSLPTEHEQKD

COC(=O)[C@@]1(O)C[C@H]2O[C@]1(C)n1c3ccccc3c3c4c(c5c6ccccc6n2c5c31)C(=O)NC4 [K252a]
radiometric in vitro kinase assay, autoradiography ([1]; 100 µM K252a, 20 min preincubation, histone substrate): Kinase activity of His-OST1 was partially decreased by K252a, a potent kinase inhibitor

Nc1ncnc2c1ncn2[C@@H]1O[C@H](COP(=O)(O)OP(=O)(O)OP(=O)(O)O)[C@@H](O)[C@H]1O [ATP]
radiometric in vitro kinase assay, autoradiography [2]: the kinase activity of Raf12, a B2 clade Raf-like kinase, was not inhibited by PP242 | radiometric in vitro kinase assay, autoradiography ([1]; autophosphorylation and histone phosphorylation, labelled compound): His-OST1 autophosphorylated and phosphorylated histone proteins as a substrate | radiometric in vitro kinase assay, autoradiography [3]: we conducted protein phosphorylation assays using Raf-like kinases in both of these clades
